Measured values reported in ChEMBL document CHEMBL5241054, “Effective anti-aromatase therapy to battle against estrogen-mediated breast cancer: Comparative SAR/QSAR assessment on steroidal aromatase inhibitors” (Eur J Med Chem, 2020).
pIC50: −log10 of the molar value.

Molecular target: T1, Aromatase (Homo sapiens, UniProt P11511)
T1 sequence (P11511 whole entry): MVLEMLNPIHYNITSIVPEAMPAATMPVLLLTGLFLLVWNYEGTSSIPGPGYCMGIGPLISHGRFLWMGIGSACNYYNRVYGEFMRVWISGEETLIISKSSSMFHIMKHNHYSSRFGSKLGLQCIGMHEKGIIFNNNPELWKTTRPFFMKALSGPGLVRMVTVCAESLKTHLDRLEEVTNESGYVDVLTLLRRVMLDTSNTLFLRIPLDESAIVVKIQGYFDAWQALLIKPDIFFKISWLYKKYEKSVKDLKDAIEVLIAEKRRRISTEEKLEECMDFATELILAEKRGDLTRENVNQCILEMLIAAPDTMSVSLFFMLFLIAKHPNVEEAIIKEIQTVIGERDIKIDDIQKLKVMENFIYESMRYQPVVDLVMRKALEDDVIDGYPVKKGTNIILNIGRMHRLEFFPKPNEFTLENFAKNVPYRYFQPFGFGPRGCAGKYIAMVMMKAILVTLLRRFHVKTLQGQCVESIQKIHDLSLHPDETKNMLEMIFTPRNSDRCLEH

| SMILES | pIC50 |
| --- | --- |
| C[C@]12CCC(=O)C(S)=C1CC[C@@H]1C2=CC[C@]2(C)C(=O)CC[C@@H]12 | 5.42 |
| C[C@]12C=CC(=O)C=C1C=C(CCc1ccccc1)[C@@H]1[C@@H]2CC[C@]2(C)C(=O)CC[C@@H]12 | 6.76 |
| CCC(=O)N1N=C2[C@H](C[C@H]3[C@@H]4CC[C@H]5C[C@@H](OC(=O)C(F)(F)F)CC[C@]5(C)[C@H]4CC[C@]23C)[C@H]1c1ccc(OC)cc1 | 5.18 |
| C[C@]12CC[C@@H]3C4CCC(=O)C=C4C(=O)C[C@H]3[C@@H]1CCC2=O (some centres not stated) | 4.92 |
| CCCCCC(=O)O[C@@H]1C[C@@H]2[C@H](CC[C@]3(C)C(=O)CC[C@@H]23)[C@@]2(C)CCC(=O)C=C12 | 6.28 |
| CCO[C@@H]1C[C@@]2(C)C(=CC1=O)CC[C@@H]1[C@@H]2CC[C@]2(C)C(=O)CC[C@@H]12 | 4.93 |
| CCCCCC(=O)O[C@@H]1C[C@@H]2[C@H](CC[C@]3(C)C(=O)CC[C@@H]23)[C@@]2(C)C=CC(=O)C=C12 | 5.75 |
| CCC(=O)O[C@@H]1C[C@@H]2[C@H](CC[C@]3(C)C(=O)CC[C@@H]23)[C@@]2(C)CCC(=O)C=C12 | 5.66 |
| C[C@]12C=CC(=O)C=C1CC[C@@H]1[C@@H]2CC[C@]2(C)C3=NN(c4ccccc4)[C@H](c4ccccc4)[C@H]3C[C@@H]12 | 5.70 |
| CC(=O)N1N=C2[C@H](C[C@H]3[C@@H]4CCC5=CC(=O)C=C[C@]5(C)[C@H]4CC[C@]23C)[C@H]1c1ccccc1 | 5.54 |
| CCCCC(=O)O[C@H]1C[C@@H]2[C@H](CC[C@]3(C)C(=O)CC[C@@H]23)[C@@]2(C)CCC(=O)C=C12 | 6.85 |
| C[C@]12CCC(=O)C=C1[C@@H](OCc1ccccc1)C[C@@H]1[C@@H]2CC[C@]2(C)C(=O)CC[C@@H]12 | 5.60 |
| CC1(C)C[C@@]2(CO)C(=CC1=O)CC[C@@H]1[C@@H]2CC[C@]2(C)C(=O)CC[C@@H]12 | 5.29 |
| CO[C@@H]1C[C@@H]2[C@H](CC[C@]3(C)C(=O)CC[C@@H]23)[C@@]2(C)C=CC(=O)C=C12 | 6.21 |
| CCCCCCCC(=O)O[C@@H]1C[C@@H]2[C@H](CC[C@]3(C)C(=O)CC[C@@H]23)[C@@]2(C)CCC(=O)C=C12 | 5.82 |
| COc1ccc([C@@H]2[C@H]3C[C@H]4[C@@H]5CC[C@H]6CC(=O)CC[C@]6(C)[C@H]5CC[C@]4(C)C3=NN2C)cc1 | 5.34 |
| CCCCCC(=O)O[C@H]1C[C@@H]2[C@H](CC[C@]3(C)C(=O)CC[C@@H]23)[C@@]2(C)CCC(=O)C=C12 | 7.06 |
| CSCSC1=C2CC[C@@H]3C(=CC[C@]4(C)C(=O)CC[C@@H]34)[C@@]2(C)CCC1=O | 5.92 |
| C[C@]12CCC(=O)C=C1[C@H](Oc1ccccc1)C[C@@H]1[C@@H]2CC[C@]2(C)C(=O)CC[C@@H]12 | 4.64 |
| COc1ccc([C@@H]2[C@H]3C[C@H]4[C@@H]5CC[C@H]6C[C@@H](O)CC[C@]6(C)[C@H]5CC[C@]4(C)C3=NN2C)cc1 | 5.21 |
| CCCCC(=O)O[C@@H]1C[C@@H]2[C@H](CC[C@]3(C)C(=O)CC[C@@H]23)[C@@]2(C)CCC(=O)C=C12 | 5.82 |
| C[C@]12C=CC(=O)C=C1C[C@H](c1ccc(N)cc1)[C@@H]1[C@@H]2CC[C@]2(C)C(=O)CC[C@@H]12 | 8.00 |
| C[C@]12C=CC(=O)C=C1C[C@@H](CCc1ccc([N+](=O)[O-])cc1)[C@@H]1[C@@H]2CC[C@]2(C)C(=O)CC[C@@H]12 | 7.83 |
| C[C@]12CCC(=O)C=C1CC[C@@H]1[C@@H]2CC[C@]2(C)C(=O)C(Br)C[C@@H]12 (some centres not stated) | 5.58 |

| SMILES | pIC50 |
| --- | --- |
| COc1ccc([C@@H]2[C@H]3C[C@H]4[C@@H]5CC[C@H]6C[C@@H](OC(=O)C(F)(F)F)CC[C@]6(C)[C@H]5CC[C@]4(C)C3=NN2c2ccccc2)cc1 | 5.26 |
| CO[C@H]1C[C@@H]2[C@H](CC[C@]3(C)C(=O)CC[C@@H]23)[C@@]2(C)CCC(=O)C=C12 | 6.27 |
| C[C@]12C=CC(=O)C=C1C[C@@H](CCc1ccc(N)cc1)[C@@H]1[C@@H]2CC[C@]2(C)C(=O)CC[C@@H]12 | 7.73 |
| COc1ccc([C@H]2NN=C3[C@@H]2C[C@H]2[C@@H]4CC[C@H]5C[C@@H](O)CC[C@]5(C)[C@H]4CC[C@]32C)cc1 | 5.17 |
| C[C@]12CC[C@@H]3C4CCC(=O)C=C4CC[C@H]3[C@@H]1CCC2=O (some centres not stated) | 5.92 |
| C[C@]12CCC(=O)C[C@@H]1C(=O)C[C@@H]1[C@@H]2CC[C@]2(C)C(=O)CC[C@@H]12 | 5.40 |
| C/C=C1\CC[C@@]2(C)[C@@H](CC[C@@H]3[C@@H]2CC[C@]2(C)C4=NN(c5ccccc5)[C@H](c5ccccc5)[C@H]4C[C@@H]32)C1 | 5.48 |
| COC1=C[C@@H]2[C@H](CC[C@]3(C)C(=O)CC[C@@H]23)[C@@]2(C)CCC(=O)C=C12 | 6.16 |
| C[C@]12CC[C@H](O)C[C@@H]1CC[C@@H]1[C@@H]2CC[C@]2(C)C3=NN(c4ccccc4)[C@H](c4ccccc4)[C@H]3C[C@@H]12 | 5.22 |
| CO[C@@H]1C[C@@]2(C)C(=CC1=O)CC[C@@H]1[C@@H]2CC[C@]2(C)C(=O)CC[C@@H]12 | 4.93 |
| CCCCO[C@H]1C[C@@H]2[C@H](CC[C@]3(C)C(=O)CC[C@@H]23)[C@@]2(C)C=CC(=O)C=C12 | 6.18 |
| CC(=O)O[C@H]1C[C@@H]2[C@H](CC[C@]3(C)C(=O)CC[C@@H]23)[C@@]2(C)CCC(=O)C=C12 | 5.40 |
| CCOC1=C[C@@H]2[C@H](CC[C@]3(C)C(=O)CC[C@@H]23)[C@@]2(C)CCC(=O)C=C12 | 6.12 |
| CCO[C@H]1C[C@@H]2[C@H](CC[C@]3(C)C(=O)CC[C@@H]23)[C@@]2(C)C=CC(=O)C=C12 | 5.82 |
| CC(=O)O[C@H]1C[C@@H]2[C@H](CC[C@]3(C)C(=O)CC[C@@H]23)[C@@]2(C)C=CC(=O)C=C12 | 5.96 |
| COc1ccc([C@@H]2[C@H]3C[C@H]4[C@@H]5CC[C@H]6CC(=O)CC[C@]6(C)[C@H]5CC[C@]4(C)C3=NN2C(C)=O)cc1 | 5.31 |
| C[C@]12C=CC(=O)C=C1C=C(c1ccccc1)[C@@H]1[C@@H]2CC[C@]2(C)C(=O)CC[C@@H]12 | 5.65 |
| C[C@]12CCC(=O)C=C1[C@H](OCc1ccccc1)C[C@@H]1[C@@H]2CC[C@]2(C)C(=O)CC[C@@H]12 | 7.07 |
| CCCC(=O)O[C@@H]1C[C@@H]2[C@H](CC[C@]3(C)C(=O)CC[C@@H]23)[C@@]2(C)CCC(=O)C=C12 | 5.57 |
| C[C@]12C=CC(=O)C=C1[C@H](Oc1ccccc1)C[C@@H]1[C@@H]2CC[C@]2(C)C(=O)CC[C@@H]12 | 4.80 |
| C[C@]12CCC(=O)C(O)=C1CC[C@@H]1C2=CC[C@]2(C)C(=O)CC[C@@H]12 | 6.46 |
| COc1ccc([C@@H]2[C@H]3C[C@H]4[C@@H]5CCC6=CC(=O)C=C[C@]6(C)[C@H]5CC[C@]4(C)C3=NN2C)cc1 | 5.68 |
| C[C@]12CCC(=O)C(S)=C1CC[C@@H]1[C@@H]2CC[C@]2(C)C(=O)CC[C@@H]12 | 5.46 |
